Like-named read-outs stand apart in the source and are kept apart here.
Tests used:
[1] = target: T1, CYP2C9 (Homo sapiens (Human), UniProt P11712); experiment: Biological Test Example 9: CYP2C9 Inhibition (Invitrogen kit, OOMR fluorogenic substrate); settings: read-out: Biological Test Example 9 CYP2C9 IC50
[2] = target: T2, human recombinant cytochrome P450 2C19 (Homo sapiens (Human), UniProt P33261); experiment: Biological Test Example 8: CYP2C19 Inhibition; settings: read-out: Biological Test Example 8 CYP2C19, IC50
[3] = target: T3, human recombinant cytochrome P450 2C9 (Homo sapiens (Human), UniProt P11712); experiment: Biological Test Example 7: CYP2C9 Inhibition (Naproxen O-demethylation); settings: read-out: Biological Test Example 7 CYP2C9, IC50; [O-methyl-14C]-Naproxen substrate
[4] = target: human recombinant cytochrome P450 3A4 (Homo sapiens (Human), UniProt P08684); experiment: Biological Test Example 6: CYP3A4 Inhibition; type: in vitro ADME
[5] = Biological Test Example 5: Fraction Unbound in Human Plasma (equilibrium dialysis); type: in vitro ADME
[6] = target: T2, human recombinant cytochrome P450 2C19
[7] = target: T1, CYP2C9; settings: pH 8
[8] = target: T3, human recombinant cytochrome P450 2C9
[9] = target: T2, human recombinant cytochrome P450 2C19; experiment: biochemical
[10] = target: T1, CYP2C9; experiment: in vitro
[11] = target: 11β-HSD1 (human liver microsomes) (Homo sapiens (Human), UniProt P28845); settings: read-out: Average % control inhibition at 100 nM
[12] = read-out: Biological Test Example 6 CYP3A4, IC50

Chain of human recombinant cytochrome P450 3A4 (P08684 whole entry): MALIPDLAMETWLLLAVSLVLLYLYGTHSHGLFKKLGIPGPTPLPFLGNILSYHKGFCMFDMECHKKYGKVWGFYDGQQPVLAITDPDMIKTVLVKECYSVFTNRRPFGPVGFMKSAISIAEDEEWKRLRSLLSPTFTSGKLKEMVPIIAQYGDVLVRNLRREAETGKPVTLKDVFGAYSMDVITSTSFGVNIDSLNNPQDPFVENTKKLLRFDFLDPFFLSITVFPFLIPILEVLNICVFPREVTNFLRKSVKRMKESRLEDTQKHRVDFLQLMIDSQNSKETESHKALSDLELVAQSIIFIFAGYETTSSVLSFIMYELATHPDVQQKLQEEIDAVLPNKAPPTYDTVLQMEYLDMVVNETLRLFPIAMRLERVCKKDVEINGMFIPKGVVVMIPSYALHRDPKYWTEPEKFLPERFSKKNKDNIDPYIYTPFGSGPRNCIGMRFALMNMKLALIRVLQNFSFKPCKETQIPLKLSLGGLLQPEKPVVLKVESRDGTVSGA
T1 sequence (P11712 whole entry): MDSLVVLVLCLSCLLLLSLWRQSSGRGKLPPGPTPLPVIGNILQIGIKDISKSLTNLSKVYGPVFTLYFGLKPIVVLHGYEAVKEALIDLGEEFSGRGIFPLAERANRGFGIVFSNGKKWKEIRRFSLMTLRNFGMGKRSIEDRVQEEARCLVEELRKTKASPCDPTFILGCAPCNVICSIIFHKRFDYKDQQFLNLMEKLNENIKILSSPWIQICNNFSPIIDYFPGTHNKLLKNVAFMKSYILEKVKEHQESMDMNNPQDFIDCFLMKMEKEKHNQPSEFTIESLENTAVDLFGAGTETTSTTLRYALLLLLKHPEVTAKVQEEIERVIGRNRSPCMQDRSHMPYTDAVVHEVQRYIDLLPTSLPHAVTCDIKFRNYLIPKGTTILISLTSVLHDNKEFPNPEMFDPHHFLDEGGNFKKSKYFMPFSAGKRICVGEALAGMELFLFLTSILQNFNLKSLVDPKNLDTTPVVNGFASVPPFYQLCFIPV
T3 sequence (P11712 whole entry): as above
T2 sequence (P33261 whole entry): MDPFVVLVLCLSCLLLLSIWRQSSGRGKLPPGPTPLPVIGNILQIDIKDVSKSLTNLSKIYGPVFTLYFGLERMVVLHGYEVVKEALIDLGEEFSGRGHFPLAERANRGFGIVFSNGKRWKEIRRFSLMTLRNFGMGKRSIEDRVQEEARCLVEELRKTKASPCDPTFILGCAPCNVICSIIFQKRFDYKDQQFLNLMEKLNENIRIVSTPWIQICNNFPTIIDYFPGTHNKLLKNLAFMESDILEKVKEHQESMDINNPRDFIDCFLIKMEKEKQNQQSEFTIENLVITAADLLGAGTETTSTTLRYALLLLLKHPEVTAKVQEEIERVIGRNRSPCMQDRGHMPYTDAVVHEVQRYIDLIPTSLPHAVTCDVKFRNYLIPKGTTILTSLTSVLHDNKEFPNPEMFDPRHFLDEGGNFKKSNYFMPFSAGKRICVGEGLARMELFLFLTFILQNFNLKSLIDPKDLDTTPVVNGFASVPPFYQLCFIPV
Chain of 11β-HSD1 (human liver microsomes) (P28845 whole entry): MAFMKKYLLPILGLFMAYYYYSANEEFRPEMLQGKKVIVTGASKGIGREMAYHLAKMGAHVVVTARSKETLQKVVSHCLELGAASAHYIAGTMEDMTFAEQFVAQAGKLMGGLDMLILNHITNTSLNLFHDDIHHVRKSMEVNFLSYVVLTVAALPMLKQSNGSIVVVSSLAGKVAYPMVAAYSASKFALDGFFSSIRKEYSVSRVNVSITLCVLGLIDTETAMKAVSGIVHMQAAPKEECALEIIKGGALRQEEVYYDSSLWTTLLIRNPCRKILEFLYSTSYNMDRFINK

For `O=C1O[C@@](CCO)(c2ccccc2)CCN1c1cccc(-c2ccc(F)cc2F)c1` [Comparator Compound 1], the IC50 [1] was 27 µM.

For `O=C1OC(CCO)(c2ccccc2F)CCN1c1cccc(-c2ccc(F)cc2F)n1` (stereo not drawn) [Comparator Compound 2], the IC50 [1] was 1.4 µM.

Work on `O=C1O[C@@](CCO)(c2ccccc2)CCN1c1cccc(-c2ccc(F)cc2)n1` [Comparator Compound 4] yielded an IC50 [1] of 5.1 µM.

`C[C@@H](c1ccc(-c2ccc(F)cc2F)cc1)N1CC[C@](CC(C)(C)O)(c2ccc(F)cc2)OC1=O` [Comparator Compound 6, reference compound] showed an IC50 [2] of 8.6 µM, an IC50 [3] of 2.3 µM and an IC50 [4, 12] of 4.4 µM. The IC50 [1] was 5 µM.

Molecule `C[C@@H](c1ccc(-c2ccc(F)cc2)cc1)N1CC[C@](CCC(N)=O)(c2ccccc2)OC1=O` [Comparator Compound 11, reference compound] has a fraction unbound [5] of 0.007 and an IC50 [4, 12] of 14.1 µM.

Work on `C[C@@H](c1ccc(-c2ccc(F)cc2)cc1)N1CC[C@](CC(C)(C)O)(c2ccccc2)OC1=O` [Comparator Compound 12, reference compound] yielded a fraction unbound [5] of 0.004 and an IC50 [4, 12] of 4.9 µM.

In the case of `C[C@@H](c1ccc(Br)cc1)N1CC[C@](CC(C)(C)O)(c2ccc(F)cc2)OC1=O` [Comparator Compound 13, reference compound], the IC50 [2] is reported as under 0.4 µM, the IC50 [3] is reported as 5.6 µM and the IC50 [4, 12] is reported as 4.4 µM. The IC50 [1] was 7.3 µM.

Work on `C[C@@H](c1ccc(OC(F)F)cc1)N1CC[C@](CCO)(c2ccc(F)cc2)OC1=O` [Comparator Compound 14, reference compound] yielded an IC50 [4, 12] of 19.7 µM, an IC50 [6] of 6.4 µM and an IC50 [7] of 24.6 µM. The IC50 [8] was 25.9 µM.

With `C[C@@H](c1ccc(Br)cc1)N1CC[C@](CC(C)(C)O)(c2ccccc2)OC1=O` [Comparator Compound 15, reference compound] the IC50 [4, 12] was 3.1 µM, the IC50 [6] was under 0.4 µM and the IC50 [7] was 9.5 µM. It also gave an IC50 [8] of 7.7 µM.

With `C[C@@H](c1ccc(-c2ccc(=O)n(C)n2)cc1)N1CC[C@](CCCO)(c2ccc(F)cc2)OC1=O` [Example 10, (R)-6-(4-fluorophenyl)-6-(3-hydroxypropyl)-3-((S)-1-(4-(1-methyl-6-oxo-1,6-dihydropyridazin-3-yl)phenyl)ethyl)-1,3-oxazinan-2-one] the IC50 [7] was 14.2 µM.

`C[C@@H](c1ccc(-c2ccc(=O)n(C)n2)cc1)N1CC[C@](CC(C)(C)O)(c2ccccc2)OC1=O` [Example 12, (S)-6-(2-hydroxy-2-methylpropyl)-3-((S)-1-(4-(1-methyl-6-oxo-1,6-dihydropyridazin-3-yl)phenyl)ethyl)-6-phenyl-1,3-oxazinan-2-one] showed an IC50 [9] of over 50 µM, a fraction unbound [5] of 0.022 and an IC50 [10] of over 50 µM.

Molecule `C[C@@H](c1ccc(-c2ccc(=O)n(C)n2)cc1)N1CC[C@](CC(C)(C)O)(c2ccc(F)cc2)OC1=O` [Example 13, (S)-6-(4-fluorophenyl)-6-(2-hydroxy-2-methylpropyl)-3-((S)-1-(4-(1-methyl-6-oxo-1,6-dihydropyridazin-3-yl)phenyl)ethyl)-1,3-oxazinan-2-one] has an IC50 [4, 12] of over 50 µM, an IC50 [6] of over 50 µM and an IC50 [8] of over 50 µM.

With `CCn1nc(-c2ccc([C@H](C)N3CC[C@](CC(C)(C)O)(c4ccccc4)OC3=O)cc2)ccc1=O` [Example 14, (S)-3-((S)-1-(4-(1-ethyl-6-oxo-1,6-dihydropyridazin-3-yl)phenyl)ethyl)-6-(2-hydroxy-2-methylpropyl)-6-phenyl-1,3-oxazinan-2-one] the IC50 ([4]; human) was 32.7 µM, the IC50 [6] was 46.3 µM and the IC50 [8] was over 50 µM.

With `C[C@@H](c1ccc(-c2ccc(=O)n(CC(F)(F)F)n2)cc1)N1CC[C@](CC(C)(C)O)(c2ccccc2)OC1=O` [Example 16, (S)-6-(2-hydroxy-2-methylpropyl)-3-((S)-1-(4-(6-oxo-1-(2,2,2-trifluoroethyl)-1,6-dihydropyridazin-3-yl)phenyl)ethyl)-6-phenyl-1,3-oxazinan-2-one] the IC50 [4, 12] was 15.6 µM, the IC50 [6] was 18.9 µM and the IC50 [8] was 13 µM.

`Cc1cc(-c2ccc([C@H](C)N3CC[C@](CC(C)(C)O)(c4ccccc4)OC3=O)cc2)nn(C)c1=O` [Example 17*, 3-{(S)-1-[4-(1,5-Dimethyl-6-oxo-1,6-dihydro-pyridazin-3-yl)-phenyl]-ethyl}-(S)-6-(2-hydroxy-2-methyl-propyl)-6-phenyl-[1,3]oxazinan-2-one] showed an IC50 [2] of over 50 µM, an IC50 [3] of over 50 µM and an IC50 [4, 12] of 31 µM.

Work on `Cc1cc(=O)n(C)nc1-c1ccc([C@H](C)N2CC[C@](CC(C)(C)O)(c3ccccc3)OC2=O)cc1` [Example 18*, 3-{(S)-1-[4-(1,4-Dimethyl-6-oxo-1,6-dihydro-pyridazin-3-yl)-phenyl]-ethyl}-(S)-6-(2-hydroxy-2-methyl-propyl)-6-phenyl-[1,3]oxazinan-2-one] yielded an inhibition at 0.1 µM [11] of 63%, an IC50 [2] of over 50 µM and an IC50 [3] of over 50 µM. The IC50 ([4]; human) was over 50 µM.

Molecule `C[C@@H](c1ccc(-c2ccc(=O)n(CC3CC3)n2)cc1)N1CC[C@](CC(C)(C)O)(c2ccccc2)OC1=O` [Example 19*, 3-{(S)-1-[4-(1-Cyclopropylmethyl-6-oxo-1,6-dihydro-pyridazin-3-yl)-phenyl]-ethyl}-(S)-6-(2-hydroxy-2-methyl-propyl)-6-phenyl-[1,3]oxazinan-2-one] has an IC50 ([4]; human) of 5.7 µM and an IC50 [6] of 5.4 µM.

Work on `C[C@@H](c1ccc(-c2ccc(=O)n(C3CC3)n2)cc1)N1CC[C@](CC(C)(C)O)(c2ccccc2)OC1=O` [Example 20*, 3-{(S)-1-[4-(1-Cyclopropyl-6-oxo-1,6-dihydro-pyridazin-3-yl)-phenyl]-ethyl}-(S)-6-(2-hydroxy-2-methyl-propyl)-6-phenyl-[1,3]oxazinan-2-one] yielded an IC50 [2] of 13.1 µM, an IC50 [3] of 28.8 µM and an IC50 [4, 12] of 15.7 µM.

Source: patent US8592410B2, “Cyclic inhibitors of 11BETA-hydroxysteroid dehydrogenase 1” (Vitae Pharmaceuticals, Inc., priority 2008, dated 2013)
